Assay results as given in patent US20150011751A1, “NOVEL TRIAZINE DERIVATIVE” (CARNA BIOSCIENCES, INC., priority 2012, published 2015).

The compounds below were run against Dephosphorylated BTK (Homo sapiens, UniProt Q06187) (assay: Test of activity inhibition against dephosphorylated BTK (mobility shift assay)).
Dephosphorylated BTK, sequence (Q06187 whole entry): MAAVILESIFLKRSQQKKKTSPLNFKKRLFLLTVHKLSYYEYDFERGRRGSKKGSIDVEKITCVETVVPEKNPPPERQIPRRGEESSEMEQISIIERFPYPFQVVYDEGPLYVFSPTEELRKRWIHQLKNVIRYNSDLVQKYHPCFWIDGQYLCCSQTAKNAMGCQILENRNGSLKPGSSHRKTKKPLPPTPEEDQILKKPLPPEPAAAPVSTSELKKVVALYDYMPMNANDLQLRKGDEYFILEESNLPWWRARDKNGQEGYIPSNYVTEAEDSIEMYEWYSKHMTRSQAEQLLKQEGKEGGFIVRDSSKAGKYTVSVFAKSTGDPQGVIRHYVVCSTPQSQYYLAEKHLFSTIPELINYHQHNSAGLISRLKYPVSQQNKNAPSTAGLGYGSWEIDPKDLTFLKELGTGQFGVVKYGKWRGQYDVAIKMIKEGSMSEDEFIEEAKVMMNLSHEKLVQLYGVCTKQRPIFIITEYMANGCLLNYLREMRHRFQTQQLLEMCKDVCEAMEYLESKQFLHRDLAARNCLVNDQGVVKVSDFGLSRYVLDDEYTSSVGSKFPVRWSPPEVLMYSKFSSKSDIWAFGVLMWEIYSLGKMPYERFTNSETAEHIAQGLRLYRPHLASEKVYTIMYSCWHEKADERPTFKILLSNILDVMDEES

IC50 | Compound
1.5 nM | CC1(Cn2cc(Nc3nc(N)nc(-c4cccc(N5CCc6cc(C7CC7)cc(F)c6C5=O)c4CO)n3)cn2)COC1 [Example 261, 2-{3-[4-Amino-6-({1-[(3-methyloxetan-3-yl)methyl]-1H-pyrazol-4-yl}amino)-1,3,5-triazin-2-yl]-2-(hydroxymeth-yl)phenyl}-6-cyclopro-pyl-8-fluoro-3,4-di-hydroisoquinolin-1(1H)-one]
0.7 nM | CC1(c2ccc(C(=O)Nc3cccc(-c4nc(N)nc(Nc5ccc(N6CCOCC6)cc5)n4)c3CO)cc2)CC1 [Example 192, N-(3-{4-Amino-6-[(4-morph-olinophenyl)amino]-1,3,5-triazin-2-yl}-2-(hydroxymethyl)phe-nyl)-4-(1-methylcyclo-propyl)benzamide]
2.7 nM | Nc1nc(Nc2ccn(CCO)c2)nc(-c2cccc(N3CCc4cc(C5CC5)cc(F)c4C3=O)c2CO)n1 [Example 234, 2-[3-(4-Amino-6-{[1-(2-hydroxyethyl)-1H-pyrrol-3-yl]amino}-1,3,5-triazin-2-yl)-2-(hy-droxymethyl)phenyl]-6-cyclopropyl-8-fluoro-3,4-dihydroisoquinolin-1(2H)-one]
1 nM | Nc1nc(Nc2ccc(N3CCNCC3)cc2)nc(-c2cccc(N3CCc4cc(C5CC5)cc(F)c4C3=O)c2CO)n1 [Example 191, 2-[3-(4-Amino-6-{[4-(pipe-razin-1-yl)phenyl]amino}-1,3,5-triazin-2-yl)-2-(hydroxymeth-yl)phenyl]-6-cyclopro-pyl-8-fluoro-3,4-dihy-droisoquinolin-1(2H)-one]
3.3 nM | Nc1nc(Nc2ccn(C3CC3)c2)nc(-c2cccc(N3CCc4cc(C5CC5)cc(F)c4C3=O)c2CO)n1 [Example 277, 2-(3-{4-Amino-6-[(1-cyclo-propyl-1H-pyrrol-3-yl)amino]-1,3,5-tri-azin-2-yl}-2-(hydroxy-methyl)phenyl)-6-cyclo-propyl-8-fluoro-3,4-dihydroisoquinolin-1(2H)-one]
1 nM | CC(C)(C)c1ccc(C(=O)Nc2cccc(-c3nc(N)nc(Nc4ccc(N5CCNC(=O)C5)cc4)n3)c2CO)cc1 [Example 114, N-[3-(4-Amino-6-{[4-(3-oxopiperazin-1-yl)phe-nyl]amino}-1,3,5-tri-azin-2-yl)-2-(hydroxy-methyl)phenyl]-4-(tert-butyl)benzamide]
1 nM | CN(C)CCOc1ccc(Nc2nc(N)nc(-c3cccc(NC(=O)c4ccc(C(C)(C)C)cc4)c3CO)n2)cc1 [Example 166, N-{3-[4-Amino-6-({4-[2-(dimethylamino)eth-oxy]phenyl}amino)-1,3,5-triazin-2-yl]-2-(hy-droxymethyl)phenyl}-4-(tert-butyl)benzamide]
0.9 nM | Nc1nc(Nc2ccc(N3CCCC(O)C3)cc2)nc(-c2cccc(NC(=O)c3cc4c(s3)CCCC4)c2CO)n1 (stereo not shown) [Example 143, N-[3-(4-Amino-6-{[4-(3-hydroxypiperidin-1-yl)phenyl]amino}-1,3,5-triazin-2-yl)-2-(hy-droxymethyl)phenyl]-4,5,6,7-tetrahydrobenzo [b]thiophene-2-carbox-amide]
1.8 nM | Cc1c(NC(=O)c2ccc(C(C)(C)C)cc2)cccc1-c1nc(N)nc(Nc2ccc(N3CCNCC3)cc2)n1 [Example 88, N-[3-(4-Amino-6-{[4-(piperazin-1-yl)phenyl]amino}-1,3,5-triazin-2-yl)-2-methylphenyl]-4-(tert-butyl)benza-mide]
0.8 nM | CC(C)(C)c1ccc(C(=O)Nc2cccc(-c3nc(N)nc(Nc4ccc(S(N)(=O)=O)cc4)n3)c2CO)cc1 [Example 118, N-(3-{4-Amino-6-[(4-sulfa-moylphenyl)amino]-1,3,5-triazin-2-yl}-2-(hydroxymethyl)phe-nyl)-4-(tert-butyl)benz-amide]
1.2 nM | CC(C)(C)c1ccc(C(=O)Nc2cccc(-c3nc(N)nc(Nc4ccc5[nH]c(=O)[nH]c5c4)n3)c2CO)cc1 [Example 141, N-(3-{4-Amino-6-[(2-oxo-2,3-dihydro-1H-ben-zo[d]imidazol-5-yl)ami-no]-1,3,5-triazin-2-yl}-2-(hydroxymethyl)phenyl)-4-(tert-butyl) benzamide]
0.8 nM | Nc1nc(Nc2cn[nH]c2)nc(-c2cccc(N3CCc4cc(C5CC5)cc(F)c4C3=O)c2CO)n1 [Example 195, 2-(3-{4-[(1H-Pyrazol-4-yl)amino]-6-amino-1,3,5-triazin-2-yl}-2-(hydroxymethyl)phenyl)-6-cyclopropyl-8-fluoro-3,4-dihydro-isoquinolin-1(2H)-one]
3.6 nM | Nc1nc(Nc2ccc(N3CCOCC3)cc2)nc(-c2cccc(NC(=O)c3cc4c(s3)CCC4)c2CO)n1 [Example 175, N-(3-{4-Amino-6-[(4-morpholinophenyl)amino]-1,3,5-triazin-2-yl}-2-(hydroxymethyl)phe-nyl)-5,6-dihydro-4H-cyclopenta[b]thiophene-2-carboxamide]
3.2 nM | Cc1c(NC(=O)c2cc3c(s2)CCCC3)cccc1-c1nc(N)nc(Nc2ccc(C(=O)N3CCOCC3)cc2)n1 [Example 66, N-[3-(4-Amino-6-{[4-(morpho-line-4-carbonyl)phenyl]amino}-1,3,5-triazin-2-yl)-2-methyl-phenyl]-4,5,6,7-tetra-hydrobenzo[b]thiophene-2-carboxamide]
1.1 nM | COc1cc(Nc2nc(N)nc(-c3cccc(NC(=O)c4ccc(C(C)(C)C)cc4)c3CO)n2)cc(OC)c1OC [Example 91, N-(3-{4-Amino-6-[(3,4,5-trimethoxyphenyl)ami-no]-1,3,5-triazin-2-yl}-2-(hydroxymethyl)phenyl)-4-(tert-butyl) benzamide]
2.2 nM | CC(C)(O)Cn1cc(Nc2nc(N)nc(-c3cccc(N4CCc5cc(C6CC6)cc(F)c5C4=O)c3CO)n2)cn1 [Example 278, 2-[3-(4-Amino-6-{[1-(2-hydroxy-2-methylpro-pyl)-1H-pyrazol-4-yl]amino}-1,3,5-triazin-2-yl)-2-(hydroxymethyl)phenyl]-6-cyclopropyl-8-fluoro-3,4-dihydro-isoquinolin-1(2H)-one]
1.1 nM | CN(C)C(=O)c1cc(Nc2nc(N)nc(-c3cccc(N4CCc5cc(C6CC6)cc(F)c5C4=O)c3CO)n2)cn1C [Example 272, 4-({4-Amino-6-[3-(6-cyclo-propyl-8-fluoro-1-oxo-3,4-dihydroisoquino-lin-2(1H)-yl)-2-(hydroxy-methyl)phenyl]-1,3,5-triazin-2-yl}ami-no)-N,N,1-trimethyl-1H-pyrrole-2-carboxamide]
0.8 nM | CC(C)(C)c1ccc(C(=O)Nc2cccc(-c3nc(N)nc(Nc4ccc(OCCO)cc4)n3)c2CO)cc1 [Example 184, N-[3-(4-Amino-6-{[4-(2-hydroxyethoxy)phenyl]amino}-1,3,5-triazin-2-yl)-2-(hydroxymeth-yl)phenyl]-4-(tert-butyl)benzamide]
0.5 nM | CC(C)(C)c1ccc(C(=O)Nc2cccc(-c3nc(N)nc(Nc4ccc(N5CCNCC5)cc4)n3)c2CO)cc1 [Example 126, N-[3-(4-Amino-6-{[4-(piperazin-1-yl)phenyl]amino}-1,3,5-triazin-2-yl)-2-(hydroxymeth-yl)phenyl]-4-(tert-butyl)benzamide]
0.4 nM | Nc1nc(Nc2ccc(Cn3ccnc3)cc2)nc(-c2cccc(NC(=O)c3cc4c(s3)CCCC4)c2CO)n1 [Example 133, N-{3-[4-({4-[(1H-Imida-zol-1-yl)methyl]phe-nyl}amino)-6-amino-1,3,5-triazin-2-yl]-2-(hy-droxymethyl)phenyl}-4,5,6,7-tetrahydroben-zo[b]thiophene-2-carboxamide]
0.7 nM | CC(C1CC1)n1cc(Nc2nc(N)nc(-c3cccc(N4CCc5cc(C6CC6)cc(F)c5C4=O)c3CO)n2)cn1 (stereo not shown) [Example 270, 2-[3-(4-Amino-6-{[1-(1-cyclopropylethyl)-1H-pyrazol-4-yl]amino}-1,3,5-triazin-2-yl)-2-(hydroxymethyl)phe-nyl]-6-cyclopropyl-8-fluoro-3,4-dihydroiso-quinolin-1(2H)-one]
1.7 nM | CC(C)(C)c1ccc(C(=O)Nc2cccc(-c3nc(N)nc(Nc4ccc5[nH]ncc5c4)n3)c2CO)cc1 [Example 140, N-(3-{4-[(1H-Indazol-5-yl)amino]-6-amino-1,3,5-triazin-2-yl}-2-(hydroxymethyl)phenyl)-4-(tert-butyl)benzamide]
2.4 nM | Nc1nc(Nc2ccsc2)nc(-c2cccc(N3CCc4cc(C5CC5)cc(F)c4C3=O)c2CO)n1 [Example 228, 2-{3-[4-Amino-6-(thio-phen-3-ylamino)-1,3,5-triazin-2-yl]-2-(hy-droxymethyl)phenyl}-6-cyclopropyl-8-fluoro-3,4-dihydroisoquinolin-1(2H)-one]
0.8 nM | CC(C)(C)c1ccc(C(=O)Nc2cccc(-c3nc(N)nc(Nc4ccc5c(c4)ncn5CCCO)n3)c2CO)cc1 [Example 155, N-[3-(4-Amino-6-{[1-(3-hydroxypropyl)-1H-benzo[d]imidazol-5-yl]amino}-1,3,5-triazin-2-yl)-2-(hydroxymeth-yl)phenyl]-4-(tert-butyl)benzamide]
0.8 nM | CCCn1cc(Nc2nc(N)nc(-c3cccc(N4CCc5cc(C6CC6)cc(F)c5C4=O)c3CO)n2)cn1 [Example 262, 2-(3-{4-Amino-6-[(1-pro-pyl-1H-pyrazol-4-yl)amino]-1,3,5-triazin-2-yl}-2-(hydroxymeth-yl)phenyl)-6-cyclopro-pyl-8-fluoro-3,4-dihy-droisoquinolin-1(2H)-one]
2.7 nM | Cc1c(NC(=O)c2ccc(C(C)(C)C)cc2)cccc1-c1ncnc(Nc2ccc(C3C(=O)N(C)CCN3C)cc2)n1 (stereo not shown) [Example 37, 4-(tert-Butyl)-N-[3-(4-{[4-(1,4-dimethyl-3-oxopiperazin-2-yl)phe-nyl]amino}-1,3,5-tri-azin-2-yl)-2-methyl-phenyl]benzamide]
0.4 nM | CC(C)(C)c1ccc(C(=O)Nc2cccc(-c3nc(N)nc(Nc4ccc(C[C@H]5COC(=O)N5)cc4)n3)c2CO)cc1 [Example 203, N-{3-[4-Amino-6-({4-[(2-oxooxazolidin-4-yl)methyl]phenyl}amino)-1,3,5-triazin-2-yl]-2-(hydroxymethyl)phe-nyl}-4-(tert-butyl) benzamide]
1.5 nM | Nc1nc(Nc2ccn([C@@H]3CCOC3)c2)nc(-c2cccc(N3CCc4cc(C5CC5)cc(F)c4C3=O)c2CO)n1 [Example 250, (R)-2-[3-(4-Amino-6-{[1-(tetrahydrofuran-3-yl)-1H-pyrrol-3-yl]ami-no}-1,3,5-triazin-2-yl)-2-(hydroyxmethyl)phenyl]-6-cyclopropyl-8-fluoro-3,4-dihydro-isoquinolin-1(2H)-one]
